Reference: patent US20200208112A1, “Method of Selecting Genetically Modified Hematopoietic Stem Cells” (priority 2017, published 2020)

Tests used:
NIH3T3 cells = experiment: Puromycin selection and ganciclovir sensitivity of LTGCPU7-transduced NIH3T3 cells; type: cell-based
Procedure: a. NIH3T3 cells were mock-transduced (NT) or transduced with LTGCPU7, and LTGCPU7-transduced cells were selected with puromycin. Equivalent numbers of mock- and LTGCPU7-transduced/selected cells were treated with GCV at the indicated concentration. Living cells were counted three days later.
(§1) (Beckman Coulter). Where indicated, purification was performed with a Mustang Q anion exchange membrane cartridge (Pall Corporation), as previously described (Kutner et al., Nature protocols, 2009, 4, 495-505) and a 40K ZebaSpin desalting column (ThermoFisher Scientific), according to the manufacturer's instructions, with concentration by ultracentrifugation. Infectious titers were determined by qPCR, as previously described (Payen, E. et al., Methods in enzymology, 2012, 507, 109-124). When indicated, transduced NIH3T3 cells were selected on puromycin and treated with various concentrations of ganciclovir (Cymevan, Roche). Adult and cord blood CD34^+ cells were cultured in SCGM (CellGenix) and X-VIVO 20 (Lonza) medium, respectively, and transduced as previously described (Negre, O. et al., Current gene therapy, 2015, 15, 64-81). Cells were selected 48 hours after transduction, on puromycin hydrochloride (5 μg/mL, Sigma-Aldrich).

CB CD34+ cells = experiment: Conditional suicide in vitro: ganciclovir treatment of CB CD34+ cells, erythroid progenitor assay; type: cell-based, human
Procedure: (§2) a.b.c.d. Human cord blood CD34^+ cells were transduced with LTGCPU7 and treated with puromycin and cyclosporine A for 24 hours. Non-transduced (NT) and LTGCPU7-transduced cells were then treated with ganciclovir (GCV) for three days, counted (a) and plated on semi-solid medium for the evaluation of erythroid progenitor cell eradication (b). Selected cells were also injected into 16 NSG mice, half of which were treated with GCV four weeks later (50 mg/kg, 6 days per week, for 2 weeks). Human chimerism (c) and VCN in human CD45^+ cells (d) were determined 2 months later.
(§3) CB CD34+ cells were transduced with LTGCPU7, they were treated with ganciclovir for 72 hours, and plated on methylcellulose. The toxicity of ganciclovir was limited in non-transduced cells (FIG. 8a and FIG. 8b) and the number of transduced erythroid progenitors decreased by a factor of 200 and 1000 in the presence of 1 μM and 5 μM ganciclovir respectively (FIG. 8b). The transduced cells were injected into 16 NSG mice. Four weeks later, eight of the mice received ganciclovir. […] The absence of hCD45+ cells in mice with levels below the limit of sensitivity (<0.01%) was confirmed by the lack of enrichment observed on hCD45 cell sorting.

[1] = system: transduced human hCD45+ cells; experiment: Conditional suicide in vivo: ganciclovir treatment of NSG mice carrying transduced human cells; settings: treated group, 50 mg/kg 6 days per week for 2 weeks, two months later
Procedure: as §2, §3

[2] = system: mobilized peripheral blood (mPB) CD34+ cells; experiment: Puromycin selection of transduced mobilized peripheral blood CD34+ cells (mean VCN, progenitor assay); type: cell-based, human
Procedure: as §1
(§4) Vector copy numbers were determined by the comparative Ct method and set at integer values. Colony-forming cells with VCN values between 0.5 and 1.5 were considered to have a VCN of 1; those with VCN values between 1.5 and 2.5 were considered to have a VCN of 2, and so on. LTC-IC cells were analyzed as previously described (Payen, E. et al., Methods in enzymology, 2012, 507, 109-124). The percentage of vector-modified LTC-IC during the readout phase of the assay was determined, by subjecting no more than one clonogenic myeloid colony per well to qPCR-based scoring to ensure that only independent LTC-ICs were analyzed.
The LTGCPU1 vector expressing the puromycin N-acetyl-transferase (PAC) gene under the human PGK promoter is derived from a β-globin LV that has been tested in an approved human trial for the gene therapy of the beta-hemoglobinopathies (Cavazzana Calvo et al., Nature, 2010; 467, 318-322; FIG. 1). LTGCPU1 transduced bone marrow (BM) CD34^+ cells were transferred onto selective medium containing 10 μg/mL puromycin at 24 or 48 hours after transduction. They were incubated for 24 hours, and the frequency of functional hematopoietic progenitor cell subsets was evaluated. The absolute numbers of vector-bearing erythroid progenitors (BFU-Es) were similar in the presence and absence of treatment, regardless of the time allowed for PAC gene expression. However, incubation for two days was required for the myeloid (CFU-GMs) and long-term progenitor cells (LTC-ICs) to acquire full resistance to the antibiotic (FIG. 2a). Mobilized peripheral blood (mPB) CD34^+ cells were also transduced with LTGCPU1 and treated with puromycin. The mean vector copy number (VCN) per cell was determined for pooled cells and compared with the theoretical VCN obtained in optimal conditions (eradication of all non-transduced cells and survival of all vector-bearing cells). In non-selective conditions, the mean VCN was 0.17. Based on the assumption that vector integration obeys Poisson statistics (see below), optimal selection should give rise to 1.08 copies of the vector per cell. Mean VCN was 1.6 when cells were selected 24 hours after transduction, and close to the expected value (1.08) if puromycin treatment began two or three days after transduction (FIG. 2b). […] With this optimized protocol, the proportion of vector-bearing progenitors (myeloid and erythroid) increased from 10-20% to more than 90% following treatment with 5 μg/mL puromycin (FIG. 2c).

[3] = system: bone marrow (BM) CD34+ cells; experiment: Puromycin selection of LTGCPU1-transduced bone marrow CD34+ cells (progenitor and LTC-IC assays); type: cell-based, human; settings: 10 μg/mL puromycin for 24 hours, 24 or 48 hours after transduction
Procedure: as §1
as §4, with “Colony-forming cells with VCN values between 0.5 and 1.5 were considered to have a VCN of 1; those with VCN values between 1.5 and 2.5 were considered to have a VCN of 2, and so on.” left out, “analyzed. […]” for “analyzed.”

cord blood CD34+ cells = experiment: Selection of LTGCPU7-transduced cord blood CD34+ cells, progenitor assay on methylcellulose; type: cell-based, human
Procedure: as §1, §4

[4] = system: SCID-repopulating cells (SRC); experiment: Transplantation of transduced and selected cord blood CD34+ cells into NSG mice (SRC selection); settings: puromycin alone, three months after transplantation
Text: NOD.Cg-Prkdc^scid Il2rg^tmlWjl/SzJ (NOD-scid IL2rgamma^null abbreviated to NSG) mice were obtained from Charles River Laboratories (Saint Germain sur l'Arbresle, France) and kept in individually ventilated cages supplied with sterile food and autoclaved water. […] Experimental protocols were approved by the ethics committee for animal experimentation of the CEA, under notification number 12-033. Three- to four-month-old female recipients (at least 6 mice per group) were sublethally irradiated with a dose of 2.8 Gy (1 Gy/min) to the whole body (TBI). Then, 10^4 to 10^5 transduced and selected human cells were injected intravenously into the mice on the day after irradiation. […]
For progenitor assays performed immediately after in vitro transduction and selection, 500 to 1000 cells were plated in methylcellulose based-medium already supplemented with human cytokines (H4434, Stemcell Technologies). […] The colonies were counted and collected after incubation for 11-14 days, washed with PBS and stored. […]
Non-viable cells were excluded by Sytox Blue nucleic acid staining (ThermoFisher Scientific) or with 7AAD (eBioscience). Data were acquired with MACSQUANT instrument (Miltenyi) and analyzed with FlowJo software (Tree Star, Inc). […]

Q: Which “sensitivity of LTGCPU7-transduced, puromycin-selected cells to ganciclovir” value (NIH3T3 cells) does the source give for `Nc1nc(O)c2ncn(COC(CO)CO)c2n1` [ganciclovir] here?
A: The value was “sensitive”.

Q: What about the “toxicity in non-transduced cells” value (CB CD34+ cells) of the same molecule?
A: The value was “limited”.

Q: And the “factor of decrease of the number of transduced erythroid progenitors” value (CB CD34+ cells; 5 μM ganciclovir, 72 hours)?
A: Its value is 1000.

Q: What about the “mice in which hCD45+ cells were detected” value [1] of the same molecule?
A: Its value is “one of the eight mice”.

Q: `COc1ccc(C[C@H](N)C(=O)N[C@H]2[C@@H](O)[C@H](n3cnc4c(N(C)C)ncnc43)O[C@@H]2CO)cc1` [puromycin] was tested. Which “absolute numbers of transduced progenitors, presence versus absence of puromycin” value ([2]; LTGCPU1-transduced, optimized protocol) did it give?
A: Its value is “similar”.

Q: And the “proportion of vector-bearing progenitors (myeloid and erythroid)” value ([2]; LTGCPU1-transduced, 5 μg/mL puromycin for 24 hours, 48 hours after transduction)?
A: Its value is “more than 90%”.

Q: And the “mean VCN per cell, pooled cells” value ([2]; LTGCPU1-transduced, puromycin 10 μg/mL, selected 24 hours after transduction)?
A: The value was 1.6.

Q: And the “mean VCN per cell, pooled cells” value ([2]; LTGCPU1-transduced, puromycin treatment began two or three days after transduction)?
A: Its value is ~1.08.

Q: And the “percentage of transduced progenitor cells in vitro” value ([2]; mPB cells, after selection with puromycin (data not shown))?
A: The value was 100%.

Q: And the “mean VCN in puromycin-treated cells” value ([2]; mPB cells, in vitro)?
A: Its value is “greater than 1”.

Q: What about the “absolute numbers of vector-bearing erythroid progenitors (BFU-Es), presence versus absence of treatment” value [3] of the same molecule?
A: Its value is “similar”.

Q: What about the “selection of LTGCPU7-transduced cord blood progenitors” value (cord blood CD34+ cells; 5 μg/mL puromycin for 24 hours) of the same molecule?
A: The value was “efficiently selected”.

Q: And the “mean VCN in erythroid progenitors, pooled cells from methylcellulose” value (cord blood CD34+ cells; 5 μg/mL puromycin, absence of MDR1 inhibitors)?
A: Its value is “≈ 0.5”.

Q: What about the “mean VCN and percentage of vector-bearing cells in erythroid progenitors versus untreated” value (cord blood CD34+ cells; puromycin alone) of the same molecule?
A: The value was “higher”.

Q: What about the “mean VCN in hCD45+ cells isolated from mice versus absence of treatment” value [4] of the same molecule?
A: The value was “similar”.
